Read-outs that look alike come from different tables or passages of the source.
Columns and labels:
[1] = target: T1, Cathepsin B (endopeptidase a.) (Homo sapiens, UniProt P07858); assay: Ki against cathepsin B endopeptidase activity (Z-RR-AMC); assay type: biochemical; settings: SigmaPlot at 3 different substrate concentrations; pH 6.0
T1 construct: made in house; host or cells: E. coli
Description: (§1) Recombinant or native human cathepsins were used: recombinant cathepsin X and cathepsin S were expressed in Pichia pastoris, recombinant cathepsins B and L in E. coli, [43], native cathepsin H was isolated from human liver. Assay buffers for determining activities of cathepsins X and L consisted of 100 mM sodium acetate buffer, pH 5.5, for cathepsins H, S and B (endopeptidase activity) of 100 mM phosphate buffer pH 6.8, 6.5 and 6.0, respectively and for cathepsin B (exopeptidase activity) of 60 mM acetate buffer pH 5.0. Each assay buffer contained 0.01% Triton X-100 to prevent false positive inhibition due to aggregation of compounds[45], 5 mM cysteine, 1.5 mM EDTA and 0.1% PEG 8000. Enzymes were activated at 37 °C for 5 min before the assays.
Ki was determined by measuring the initial rate of hydrolysis at three different substrate concentrations (Supplementary Table S2) in the presence of seven different compound concentrations (0, 20, 40, 60, 80, 100 and 200 μM). 90 μL of the activated cathepsin was added to a black 96-well plate with 5 μL of the substrate and 5 μL of the compound. Formation of the fluorescent degradation product was monitored continuously at 460 nm ± 10 nm with excitation at 380 nm ± 20 nm (for AMC substrates) and, as noted above for Abz substrates, at 37 °C. All measurements were performed twice and in duplicate. The resulting data were analyzed by non-linear regression using the software SigmaPlot®, Enzyme Kinetics Module™ 1.3 and were fitted to the equation v = v max [S]/([S] (1 + [I]/αK i ) + K m (1 + [I]/K i )) (first group of compounds). For Ki determination against cathepsin X for the compounds from the second group, progress curves in the absence and presence of each putative inhibitor were fitted to the reaction mechanism presented in Fig. 3b. In this case the resulting data as well as reactivation curves were fitted to the equation system presented in Fig. 3c using ENZO application. For calculation of kinetic parameters from reaction progress curves the fluorescence coefficient for conversion of arbitrary fluorescence units to concentration was first determined. The fluorescence coefficient was calculated as the slope from the plot of initial substrate concentration vs. height of the plateau of the progress curve after complete hydrolysis of increasing concentrations of substrate, using linear regression.
Supplementary Table S2. Substrates used for the various cathepsins and their concentrations […]
Enzyme Substrate Concentration (µM) Reference/Company cathepsin X Abz-FEK(Dnp)-OH 3.25, 6.5, 13 Puzer et al.3 cathepsin B - endopept. Z-RR-AMC 60, 180, 360 Bachem cathepsin B - exopept. Abz-GIVRAK(Dnp)-OH 1, 3, 6 Bachem cathepsin S Z-VVR-AMC 0.5, 1, 1.5 Biomol cathepsin L Z-FR-AMC 0.5, 1, 4 Bachem cathepsin H Z-R-AMC 20, 80, 160 Biomol […]

[2] = target: cathepsin X (Homo sapiens, UniProt Q9UBR2); assay: Determination of relative inhibition of cathepsin X; assay type: biochemical; set-up: made in house; host or cells: Pichia pastoris
Description: as §1
Abz-FEK(Dnp)-OH was used as cathepsin X specific substrate in activity assays. 90 μL of activated cathepsin X (20 nM) was added to a black 96-well plate with 5 μL of substrate (3.25 μM final concentration) and 5 μL of the compound (50 μM final concentration). The reaction was monitored continuously at 420 nm ± 10 nm with excitation at 320 nm ± 20 nm and at 37 °C. Relative inhibition (%) was calculated with the equation (1 − v i/v 0) × 100, where v i is reaction velocity in the presence of the compound and v 0 is reaction velocity without the compound.

[3] = target: T2, cathepsin X in PC-12 cell lysates (Rattus norvegicus, UniProt Q9R1T3); assay: Cathepsin X activity in PC-12 cell lysates; assay type: cell-based; settings: 10 μM
T2 construct: endogenous in cells; host or cells: PC-12
Description: To detect cathepsin X activity in cell lysates, 95 μL of activated cell lysates (0.2 mg/mL total protein in assay buffer) were added to a black 96-well plate containing 5 μL of the substrate. The further procedure was the same as above. In some experiments lysates of non-treated cells were pre-incubated with 10 μM of compounds for 30 minutes and then activity was measured as described above.
For testing the enzyme activity in cell lysates, cells were treated with 10 μM of compounds. After 24 hours lysates were prepared in 50 mM Na acetate buffer pH 5.5 with 1 mM EDTA, 100 mM NaCl and 0.25% Triton X-100. Total protein concentration was determined by DC Protein Assay (Bio Rad) according to the instructions.

[4] = tested on: PC-3 cells; assay: Real time cell migration assay (xCELLigence, CIM plates); assay type: cell-based, human
Description: Human prostate cancer cell line PC-3 cells (obtained from ATCC, Manassas, USA; ATCC Number: CRL-1435) were cultured in F-12 (Gibco) and Advanced DMEM (Gibco) (1:1) with 10% FBS, 1% penicillin/streptomycin and 1% L-glutamine. Rat pheochromocytoma PC-12 cells (obtained from ATCC, Manassas, USA; ATCC Number: CRL-1721) were cultured in Advanced DMEM (Gibco) with 5% FBS, 10% heat-inactivated horse serum, 1% penicillin/streptomycin and 1% L-glutamine.
Cell migration assay was performed on a Real-Time Cell Analyzer Dual Plate (RTCA DP) Instrument, xCELLigence System (ACEA Biosciences). CIM plates were coated with fibronectin (10 μg/ml, BD Biosciences) on the down and upper side of the microporous PET membrane for 30 min at room temperature and 2 hours at 37 °C, respectively. Excess fibronectin was removed and wells washed with phosphate buffer saline (PBS). Compounds (10 μM) were added to the complete media (lower chambers) or serum-free media (upper chambers). 0.1% DMSO was used as a control. 2 × 10^4 cells were plated per well. In additional experimental setting, inhibitors were added only to the upper chambers 3 hours after experiment started in order to measure their impact only on the cell migration and not the adhesion. Impedance data, reported as cell index, were measured continuously every 15 min for 72 hours and then analyzed with the RTCA Software (ACEA Biosciences, Inc.). Results are normalized to cells treated with DMSO.

Chain of cathepsin X (Q9UBR2 62-303): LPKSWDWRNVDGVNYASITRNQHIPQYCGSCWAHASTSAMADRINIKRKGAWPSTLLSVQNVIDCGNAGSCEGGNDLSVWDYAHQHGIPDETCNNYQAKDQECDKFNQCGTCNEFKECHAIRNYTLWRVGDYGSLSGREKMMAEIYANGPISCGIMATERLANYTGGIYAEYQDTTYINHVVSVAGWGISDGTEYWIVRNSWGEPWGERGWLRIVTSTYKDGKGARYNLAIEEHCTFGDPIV
T2 sequence (Q9R1T3 64-306): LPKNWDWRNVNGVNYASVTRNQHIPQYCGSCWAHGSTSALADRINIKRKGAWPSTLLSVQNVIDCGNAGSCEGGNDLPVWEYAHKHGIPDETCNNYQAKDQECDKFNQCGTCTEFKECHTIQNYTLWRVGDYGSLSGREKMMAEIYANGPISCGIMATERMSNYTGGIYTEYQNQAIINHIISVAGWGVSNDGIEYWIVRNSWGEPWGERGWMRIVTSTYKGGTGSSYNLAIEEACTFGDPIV

Ki [1]: 310 ± 68.3 µM | inhibition at 50 µM ([2]; screening at 50 μM compound, read-out: relative inhibition of cathepsin X): > 70% | inhibition at 50 µM ([2]; second group, 50 μM compound, 1 h preincubation, read-out: % inhibition (1 h preincubation)): 75% | inhibition of cathepsin X activity in PC-12 cell lysates [3]: most potent
Structure (SMILES): CC(C)n1cnnc1SCC(=O)c1ccc2c(c1)OCCO2 [Compound 22, 1-(2,3-Dihydrobenzo[b][1,4]dioxin-6-yl)-2-((4-isopropyl-4H-1,2,4-triazol-3-yl)thio)ethan-1-one]
inhibition at 10 µM ([4]; Homo sapiens, PC-3, 10 μM, compound in upper and bottom compartments, vs DMSO): 15 to 30% | inhibition of PC-3 cell migration, alternative setting excluding adhesion ([4]; compound only in upper compartment, added 3 hours after seeding): inhibits migration
